# Measurements taken from publication PMC4178217, “Quinoline 3-sulfonamides inhibit lactate dehydrogenase A and reverse aerobic glycolysis in cancer cells” (Cancer & Metabolism, 2013).
# “And” between values parts separate entries of the source, which are not always exact repeats. Equal entries are not always repeated.
# System: Snu398 cells
# Conditions: Snu-398 conditioned medium, 10 μM, 24 h
# Procedure: Ten million Snu398 or HepG2 cells per flask were plated in R10 medium in T150 tissue culture flasks and allowed to attach overnight. The following morning, medium was replaced with medium containing either DMSO or 10 μM LDHA inhibitor, and cells were incubated for 24 h at 37°C. The conditioned medium was collected and cells were washed, lifted by trypsinization and pelleted. Both medium and cell samples were submitted for mass spectroscopy (MS) analysis of over 500 individual metabolites. All samples were prepared in replicates of five.
compound,measurement,value
COc1ncc(-c2ccc3c(Nc4cc(C(=O)O)cc(C5CCCC5)c4)c(S(=O)(=O)NC4CC4)cnc3c2)c(OC)n1 [Compound 2],fold change 1-oleoylglycerophosphocholine,1.05
same,fold change 1-palmitoleoylglycerophosphocholine*,0.90
same,fold change 1-palmitoylglycerophosphocholine,1.01
same,fold change 1-stearoylglycerophosphocholine,1.19
same,fold change 2'-O-methylguanosine,0.80
same,fold change 2-aminobutyrate,0.99
same,fold change 2-hydroxybutyrate (AHB),0.99
same,fold change 2-hydroxyglutarate,1.18
same,fold change 2-methylbutyroylcarnitine,1.01
same,fold change 2-methylbutyrylglycine,1.13
same,fold change 2-oleoylglycerophosphocholine*,0.98
same,fold change 2-palmitoylglycerophosphocholine*,1.26
same,fold change 2-stearoylglycerophosphocholine*,1.42
same,fold change 3-(4-hydroxyphenyl)lactate,0.97
same,fold change 3-dehydrocarnitine*,1.02
same,fold change 3-indoxyl sulfate,1.06
same,fold change 3-methyl-2-oxobutyrate,1.05
same,fold change 3-methyl-2-oxovalerate,1.03
same,fold change 4-acetamidobutanoate,0.90
same,fold change 4-guanidinobutanoate,0.77
same,fold change 4-methyl-2-oxopentanoate,1.21
same,fold change 5-oxoproline,1.19
same,fold change 6'-sialyllactose,1.11
same,fold change C-glycosyltryptophan*,0.98
same,fold change HEPES,0.97
same,"fold change Isobar: 2-propylpentanoic acid, 2-ethylhexanoic acid",1.15
same,fold change N1-methyladenosine,1.01
same,fold change N1-methylguanosine,0.95
same,fold change N6-carbamoylthreonyladenosine,0.91
same,fold change N-acetylaspartate (NAA),0.99
same,fold change N-acetylneuraminate,0.79
same,fold change N-acetylornithine,1.11
same,fold change X - 02952,0.28
same,fold change X - 02973,1.02
same,fold change X - 03090,1.76
same,fold change X - 04015,1.25
same,fold change X - 04133,1.17
same,fold change X - 04135,1.33
same,fold change X - 04148,1.14
same,fold change X - 04252,0.37
same,fold change X - 04357,3.15
same,fold change X - 05907,1.01
same,fold change X - 06126,0.91
same,fold change X - 06911,0.81
same,fold change X - 08172,1.18
same,fold change X - 08889,1.38
same,fold change X - 08895,0.98
same,fold change X - 09008,1.34
same,fold change X - 09026,1.05
same,fold change X - 10475,1.45
same,fold change X - 10476,1.32
same,fold change X - 10634,0.42
same,fold change X - 10740,0.87
same,fold change X - 10869,0.69
same,fold change X - 11081,1.19
same,fold change X - 11315,1.04
same,fold change X - 11533,0.87
same,fold change X - 11593,0.89
same,fold change X - 11787,0.94
same,fold change X - 12013,0.89
same,fold change X - 12015,1.01
same,fold change X - 12117,1.10
same,fold change X - 12216,0.96
same,fold change X - 12339,1.00
same,fold change X - 12435,0.96
same,fold change X - 12602,0.99
same,fold change X - 12729,1.00
same,fold change X - 12749,0.94
same,fold change X - 12776,1.11
same,fold change X - 12786,2.02
same,fold change X - 12792,1.10
same,fold change X - 12799,0.97
same,fold change X - 12944,1.00
same,fold change X - 13100,0.98
same,fold change X - 13103,0.98
same,fold change X - 13104,1.21
same,fold change X - 13110,1.01
same,fold change X - 13115,0.80
same,fold change X - 13117,0.96
same,fold change X - 13166,0.94
same,fold change X - 13483,0.87
same,fold change X - 13491,1.35
same,fold change X - 13494,1.24
same,fold change X - 13496,1.00
same,fold change X - 13507,1.11
same,fold change X - 13553,1.09
same,fold change X - 13581,2.54
same,fold change X - 13857,0.86
same,fold change X - 14056,1.73
same,fold change X - 14574,1.45
same,fold change X - 14588,0.84
same,fold change X - 15558,1.10
same,fold change X - 15559,1.21
same,fold change X - 15562,1.10
same,fold change X - 15563,1.18
same,fold change X - 15678,1.19
same,fold change X - 15808,1.12
same,fold change X - 16103,0.95
same,fold change X - 16116,0.82
same,fold change X - 16200,1.20
same,fold change X - 16206,1.03
same,fold change X - 16439,1.19
same,fold change X - 16444,1.03
same,fold change X - 17112,0.96
same,fold change X - 17430,1.10
same,fold change acetylcarnitine,0.97
same,fold change acetylphosphate,1.00
same,fold change alanine,1.20
same,fold change alanylglutamine,0.94
same,fold change allantoin,1.08
same,fold change arabitol,1.09
same,fold change arachidonate (20:4n6),1.01
same,fold change arginine,0.98
same,fold change asparagine,0.74
same,fold change aspartate,1.09
same,fold change aspartylleucine,0.96
same,fold change beta-alanine,0.86
same,fold change beta-hydroxyisovalerate,0.93
same,fold change beta-hydroxypyruvate,1.05
same,fold change betaine,1.00
same,fold change biotin,0.97
same,fold change butyrylcarnitine,0.76
same,fold change caproate (6:0),1.01
same,fold change caprylate (8:0),1.04
same,fold change carnitine,0.93
same,fold change catechol sulfate,1.01
same,fold change choline,0.97
same,fold change citrate,1.02
same,fold change citrulline,0.95
same,fold change creatine,1.01
same,fold change creatinine,1.07
same,fold change cyclo(leu-ala),0.93
same,fold change cysteine,1.01
same,fold change cysteine sulfinic acid,0.95
same,fold change cysteine-glutathione disulfide,1.41
same,fold change deoxycarnitine,0.95
same,fold change dimethyl sulfoxide*,1.03
same,fold change dimethylarginine (SDMA + ADMA),1.30
same,fold change docosahexaenoate (DHA; 22:6n3),1.03
same,fold change docosapentaenoate (n3 DPA; 22:5n3),0.89
same,fold change erythritol,1.01
same,fold change erythronate*,0.96
same,fold change ethanolamine,1.09
same,fold change folate,1.00
same,fold change fructose,1.01
same,fold change fumarate,0.99
same,fold change gamma-glutamylisoleucine*,0.74
same,fold change gamma-glutamylleucine,0.89
same,fold change gamma-glutamylphenylalanine,1.18
same,fold change gamma-glutamylvaline,0.85
same,fold change glucose,1.07
same,fold change glutamate,1.05
same,fold change glutamine,1.15
same,fold change glycerate,1.15
same,fold change glycerol,1.10
same,fold change glycerol 3-phosphate (G3P),0.95
same,fold change glycerophosphorylcholine (GPC),0.86
same,fold change glycine,1.06
same,fold change glycochenodeoxycholate,0.90
same,fold change glycocholate,1.02
same,fold change glycylglycine,0.90
same,fold change glycylleucine,0.84
same,fold change glycyltyrosine,0.99
same,fold change glycylvaline,0.96
same,fold change heme*,0.94
same,fold change hexadecanedioate,1.07
same,fold change hippurate,0.98
same,fold change histidine,1.01
same,fold change homostachydrine*,1.01
same,fold change hydroquinone,0.85
same,fold change indolelactate,1.02
same,fold change isobutyrylcarnitine,1.03
same,fold change isoleucine,0.96
same,fold change isovalerate,0.68
same,fold change isovalerylcarnitine,1.02
same,fold change kynurenate,1.10
same,fold change kynurenine,1.07
same,fold change lactate,0.94
same,fold change leucine,0.95
same,fold change lysine,0.51
same,fold change lysylleucine,0.85
same,fold change malate,0.95
same,fold change mannitol,0.82
same,fold change methionine,0.94
same,fold change myo-inositol,0.98
same,fold change nicotinamide,0.87
same,fold change ornithine,0.80
same,fold change p-aminobenzoate (PABA),0.98
same,fold change p-cresol sulfate,0.96
same,fold change palmitoyl sphingomyelin,0.96
same,fold change pantothenate,0.98
same,fold change phenol red,0.99
same,fold change phenol sulfate,1.00
same,fold change phenylacetylglycine,0.95
same,fold change phenylalanine,0.89
same,fold change phosphate,1.01
same,fold change pipecolate,1.02
same,fold change pro-hydroxy-pro,1.06
same,fold change proline,1.13
same,fold change propionylcarnitine,0.95
same,fold change pseudouridine,1.02
same,fold change putrescine,0.82
same,fold change pyridoxate,0.95
same,fold change pyridoxine (Vitamin B6),1.02
same,fold change pyruvate,3 and 2.66
same,fold change ribitol,1.06
same,fold change riboflavin (Vitamin B2),1.02
same,fold change scyllo-inositol,0.89
same,fold change serine,0.84
same,fold change serotonin (5HT),1.03
same,fold change sorbitol,0.98
same,fold change succinate,0.98
same,fold change taurocholate,0.89
same,fold change taurodeoxycholate,0.96
same,fold change tetradecanedioate,0.80
same,fold change thiamin (Vitamin B1),1.12
same,fold change threitol,0.96
same,fold change threonine,0.96
same,fold change trans-4-hydroxyproline,1.06
same,fold change tryptophan,0.90
same,fold change tyrosine,0.91
same,fold change uracil,0.99
same,fold change urea,1.10
same,fold change uridine,1.20
same,fold change valerylcarnitine,0.97
same,fold change valine,0.95
same,fold change xylitol,1.13
